Laboratory results published in the supplement of paper PMC10307832.

Assays:
Assay in all cases: relative viability (nuclei count vs DMSO), 5 days (fraction); higher = more cells survive
SGI-1776 + Linsitinib = compound: CN1CCC(CNc2ccc3ncc(-c4cccc(OC(F)(F)F)c4)n3n2)CC1 [SGI-1776] + C[C@]1(O)C[C@@H](c2nc(-c3ccc4ccc(-c5ccccc5)nc4c3)c3c(N)nccn32)C1 [Linsitinib] (partner 1 µM)
In short: (§1)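 One day after seeding in 1536-well plates, lung cancer cell lines were dosed by pin tool. Dosing was either single-drug or a fixed anchor-drug dose plus five library-drug doses (not always all listed) in √10 steps. After 5 days, nuclei were stained in one fix-and-stain step and counted on 4× images, and relative viability is the nuclei count of treated wells over that of vehicle wells, given as the median of duplicate plates.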

Entinostat + AZD7762 = compound: Nc1ccccc1NC(=O)c1ccc(CNC(=O)OCc2cccnc2)cc1 [Entinostat] + NC(=O)Nc1cc(-c2cccc(F)c2)sc1C(=O)N[C@H]1CCCNC1 [AZD7762] (partner 0.2 µM)
In short: as §1

Entinostat + Pemetrexed = compound: Nc1ccccc1NC(=O)c1ccc(CNC(=O)OCc2cccnc2)cc1 [Entinostat] + Nc1nc2[nH]cc(CCc3ccc(C(=O)N[C@@H](CCC(=O)O)C(=O)O)cc3)c2c(=O)[nH]1 [Pemetrexed] (partner 0.2 µM)
In short: as §1

Entinostat + OSI-027 = compound: Nc1ccccc1NC(=O)c1ccc(CNC(=O)OCc2cccnc2)cc1 [Entinostat] + COc1cccc2cc(-c3nc([C@H]4CC[C@H](C(=O)O)CC4)n4ncnc(N)c34)[nH]c12 [OSI-027] (partner 0.5 µM)
In short: as §1

Cell Line	relative viability (SGI-1776 + Linsitinib; first compound 0.08 µM)	relative viability (SGI-1776 + Linsitinib; first compound 0.8 µM)	relative viability (SGI-1776 + Linsitinib; first compound 2.53 µM)	relative viability (SGI-1776 + Linsitinib; first compound 8 µM)	relative viability (Entinostat + AZD7762; first compound 0.02 µM)	relative viability (Entinostat + AZD7762; first compound 0.06325 µM)	relative viability (Entinostat + AZD7762; first compound 0.2 µM)	relative viability (Entinostat + AZD7762; first compound 0.6325 µM)	relative viability (Entinostat + AZD7762; first compound 2 µM)	relative viability (Entinostat + Pemetrexed; first compound 0.02 µM)	relative viability (Entinostat + Pemetrexed; first compound 0.06325 µM)	relative viability (Entinostat + Pemetrexed; first compound 0.2 µM)	relative viability (Entinostat + Pemetrexed; first compound 0.6325 µM)	relative viability (Entinostat + Pemetrexed; first compound 2 µM)	relative viability (Entinostat + OSI-027; first compound 0.02 µM)	relative viability (Entinostat + OSI-027; first compound 0.06325 µM)	relative viability (Entinostat + OSI-027; first compound 0.2 µM)	relative viability (Entinostat + OSI-027; first compound 0.6325 µM)	relative viability (Entinostat + OSI-027; first compound 2 µM)
NCI-H2126	0.731	0.731	0.684	0.695	0.936	1.03	1.01	0.737	0.495	0.71	0.687	0.674	0.405	0.306	0.725	0.699	0.712	0.402	0.308
EMC-BAC-2	0.868	0.846	0.838	0.737	1.17	0.987	0.881	0.441	0.457	0.434	0.432	0.416	0.361	0.341	0.376	0.423	0.368	0.305	0.256
NCI-H1437	1.03	1.03	0.952	0.452	1.12	0.947	0.781	0.396	0.369	0.318	0.282	0.231	0.178	0.148	0.786	0.581	0.306	0.218	0.203
NCI-H2347	0.995	0.992	0.966	0.865	0.741	0.755	0.576	0.378	0.255	0.442	0.447	0.339	0.369	0.341	0.292	0.284	0.175	0.217	0.153
NCI-H1666	0.856	0.83	0.772	0.493	1.07	0.918	0.812	0.835	0.519	0.866	0.989	0.913	0.75	0.579	0.906	0.897	0.859	0.618	0.606
NCI-H1993	0.755	0.76	0.78	0.645	0.777	0.741	0.69	0.468	0.366	0.53	0.609	0.558	0.536	0.472	0.484	0.586	0.53	0.552	0.653
HCC-44	0.73	0.709	0.644	0.641	1.02	0.876	1.02	0.995	0.774	0.63	0.604	0.631	0.562	0.564	0.53	0.518	0.333	0.182	0.176
LU99A	0.573	0.54	0.545	0.432	0.353	0.475	0.378	0.224	0.254	0.188	0.181	0.184	0.175	0.179	0.308	0.314	0.353	0.27	0.296
NCI-H460	0.683	0.859	0.785	0.459	0.65	0.651	0.559	0.233	0.0734	0.0727	0.068	0.076	0.0606	0.041	0.606	0.575	0.335	0.0521	0.0268
NCI-H650	1.07	0.952	0.686	0.727	1.12	0.95	1.08	0.823	0.325	0.952	0.951	0.833	0.794	0.353	0.614	0.614	0.586	0.489	0.261
NCI-H1975	0.946	0.906	0.909	0.803	0.628	0.612	0.669	0.476	0.395	0.283	0.306	0.27	0.219	0.185	0.532	0.526	0.467	0.264	0.209
NCI-H1355	0.92	0.899	0.792	0.729	0.634	0.789	0.618	0.546	0.369	0.99	0.945	0.874	0.749	0.614	0.476	0.434	0.397	0.27	0.252
NCI-H1755	0.988	0.969	0.996	0.896	0.406	0.486	0.493	0.405	0.355	0.422	0.437	0.407	0.358	0.374	0.693	0.776	0.684	0.566	0.309
LK-2	0.697	0.773	0.523	0.418	0.481	0.623	0.5	0.345	0.21	0.365	0.278	0.282	0.276	0.132	0.221	0.187	0.188	0.188	0.18
HCC-78	0.582	0.432	0.449	0.403	0.609	0.687	0.466	0.327	0.254	0.922	0.873	0.946	0.871	0.908	0.402	0.33	0.351	0.344	0.261
NCI-H3122	1.04	0.983	1.16	1.08	1.03	1.01	1.15	0.971	0.805	0.186	0.208	0.2	0.171	0.185	1.01	1.08	0.998	0.823	0.191
HOP-62	0.823	0.877	1.23	1.04	0.535	0.711	0.545	0.222	0.15	0.23	0.301	0.286	0.229	0.188	0.801	0.882	0.85	0.49	0.248
NCI-H358	0.725	0.756	0.758	0.388	0.55	0.69	0.6	0.408	0.192	0.163	0.168	0.158	0.128	0.135	0.879	0.992	0.796	0.496	0.169
BEN	0.931	0.789	0.796	0.646	0.771	0.714	0.685	0.602	0.464	0.88	1.02	0.891	0.564	0.413	0.271	0.353	0.323	0.302	0.217
NCI-H1792	0.479	0.543	0.503	0.647	0.731	0.747	0.465	0.236	0.153	0.844	0.765	0.896	0.374	0.191	0.752	0.753	0.609	0.569	0.43
NCI-H2085	0.994	0.957	0.902	0.757	0.965	0.93	0.909	0.683	0.692	0.826	0.918	0.869	0.712	0.532	0.737	0.625	0.676	0.334	0.293
LCLC-103H	1.07	0.972	1.1	0.979	0.818	0.866	0.719	0.474	0.432	0.472	0.463	0.443	0.454	0.426	0.473	0.555	0.504	0.393	0.279
201T	1.05	1.01	0.968	0.87	0.694	0.711	0.601	0.402	0.328	0.37	0.33	0.379	0.287	0.279	0.92	0.726	0.619	0.548	0.45
NCI-H1395	1.19	1.08	0.938	0.746	0.39	0.386	0.395	0.373	0.356	0.884	1.05	0.911	0.76	0.719	0.716	0.764	0.583	0.647	0.505
NCI-H23	0.724	0.541	0.517	0.411	0.377	0.294	0.251	0.137	0.121	0.76	0.892	0.728	0.685	0.319	0.711	0.774	0.648	0.463	0.287
LXF-289	0.992	0.98	1.01	0.97	1.05	1.14	1.07	0.952	0.473	0.878	0.878	0.869	0.719	0.665	0.795	0.765	0.894	0.582	0.395
EKVX	1.1	0.985	1.01	0.863	0.763	0.645	0.645	0.416	0.265	0.402	0.376	0.385	0.344	0.273	0.751	0.738	0.805	0.511	0.318
LC-2-ad	0.842	0.959	0.911	0.639	0.884	0.853	0.759	0.497	0.257	0.286	0.276	0.28	0.302	0.33	0.768	0.842	0.578	0.349	0.27
